The source of these data is US11957767B2, “Compound targeting prostate specific membrane antigen, and preparation method and application thereof” (YANTAI LANNACHENG BIOTECHNOLOGY CO., LTD., priority 2021, dated 2024).

Data set [1] concerns subcutaneous transplanted tumor, prostate cancer (22RV1). The data set is described as follows: Uptake of 177Lu labeled complex in subcutaneous transplanted tumor model mice with prostate cancer (tumor uptake and tissue distribution). The format is in vivo. Particulars: 24 h after intravenous tail injection of 5 MBq; 22RV1 tumor model mice; FIG. 1. The protocol: The compound in Example 31 or another prior radioactive probe targeting PSMA was injected into subcutaneous transplanted tumor model mice with prostate cancer, and uptake results in tumors and distribution results in tissues were compared. A specific plan is as follows.
The subcutaneous transplanted tumor model mice with prostate cancer (22RV1) were randomly divided into 3 groups including an experimental group, a control group A and a control group B with 3 mice in each group.
[…] complex with purity of greater than 95% was prepared according to the method in Example 31. The complex is obtained by labeling compound 10 in Example 1 with ^177Lu, which was used as medicine B for the experimental group in the experiment. […]
5 MBq of medicine B, the medicine A and the medicine C were intravenously injected into tails of the mice in the experimental group, the control group A and the control group B, respectively. […] The obtained tissues were weighed, and measured by a y counter to obtain the radioactive counting of samples in the experimental group, the control group A and the control group B. Measured data were subtracted from the background, the decay time was corrected, and then average values were obtained. The data was expressed as the percentage of injected dose per gram tissue (% ID/g) of the dose uptake in tissues per gram in the injected dose.

In another data set the test system is PSMA positive lesions. Particulars: human, in vivo; cited from earlier work.

In the case of `O=C([O-])CN1CCN(CC(=O)[O-])CCN(CC(=O)NCC2CCC(C(=O)N[C@@H](Cc3ccc4ccccc4c3)C(=O)NCCCC[C@H](NC(=O)N[C@@H](CCC(=O)O)C(=O)O)C(=O)O)CC2)CCN(CC(=O)[O-])CC1.[177Lu+3]` (some centres unmarked) [^177Lu-PSMA 617], the uptake in tumors in data set [1] stood at 7.60±1.22 % ID/g. In the data set on PSMA positive lesions, the “patients with no response to therapy” value is “About 30%”.
